Results from patent US5187157A, “Peptide boronic acid inhibitors of trypsin-like proteases” (Du Pont Merck Pharmaceutical Company, priority 1988, dated 1993).
Residues, ends and D or L forms follow the SMILES beside them. *: point of attachment. X1 = CC1(C)C2CC3OB(C(CCCNC(=N)N)N*)OC3(C)C1C2; X2 = CC1(C)C2CC3OB(C(CCCSC(=N)N)N*)OC3(C)C1C2; X3 = CC1(C)C2CC3OB(C(CCCN)N*)OC3(C)C1C2; Boc = CC(C)(C)OC(=O)*

The compounds below were run against T1, Human thrombin (Homo sapiens, UniProt P00734) (assay: Inhibition of Thrombin (Esterase Activity)). Settings: inhibitor 5 nM; activity remaining 10 to 20 min after initiation.
T1 construct: purchased R.Q.P. Laboratories, South Bend, IN Lot HT102
Type: biochemical
Description: In the Examples which follow, the hydrolytic activity of each enzyme is measured in both the presence and absence of inhibitor and the percent enzyme activity determined. […] A steady state is reached fairly rapidly and nears completion within 5 min. Activity is evaluated between 10-20 min after the components are mixed to insure that reaction components are at equilibrium. The lowest concentration of inhibitor tested is determined by the estimated concentration of enzyme. […] The maintenance of pseudo-first-order reaction conditions and the sensitivity of the respective assays sets the lowest limit level of inhibitor tested at 10 nM for kallikrein inhibitors and 5 nM for thrombin inhibitors.
A stock solution of thrombin was prepared in 0.010M PIPES Buffer, pH 6.0, containing 0.75 M sodium chloride. […] The initial concentration of substrate was 0.10 mM and the concentration of thrombin was 1.0 nM (based on weight).

Compound	Percent Activity
Br.CC1(C)C2CC3OB(C(CCCSC(=N)N)NC(=O)C4CCCN4C(=O)C(N)Cc4ccccc4)OC3(C)C1C2.Cl (stereo not drawn) [H--(D)Phe--Pro--boroIrg--C10 H16.HBr.HCl, H-(D)Phe-Pro-boroIrg-C10 H16.HBr,HCl]	4%

Same assay, conditions: inhibitor 10 nM; activity remaining 10 to 20 min after initiation

Compound	Percent Activity
Br.CC(C)CC(NC(=O)CNC(=O)C(CC(C)C)NC(=O)OC(C)(C)C)C(=O)NC(C)C(=O)NC(CCCSC(=N)N)B1OC2CC3CC(C3(C)C)C2(C)O1 (stereo not drawn) [Boc-Leu-Gly-Leu-Ala-boroIrg-C10 H16.HBr] (Boc-LGLA-X2; configuration not given here)	66%
CC(C)CC(N)C(=O)NCC(=O)NC(CC(C)C)C(=O)NC(C)C(=O)NC(CCCNC(=N)N)B1OC2CC3CC(C3(C)C)C2(C)O1.Cl.O=S(=O)(O)c1ccccc1 (stereo not drawn) [H-Leu-Gly-Leu-Ala-boroArg-C10 H16.HCl.benzene sulfonic acid] (H-LGLA-X1; configuration not given here)	25%
Br.Br.CC(C)CC(N)C(=O)NCC(=O)NC(CC(C)C)C(=O)NC(C)C(=O)NC(CCCSC(=N)N)B1OC2CC3CC(C3(C)C)C2(C)O1 (stereo not drawn) [H-Leu-Gly-Leu-Ala-boroIrg-C10 H16.2HBr] (H-LGLA-X2; configuration not given here)	37%
Br.Br.CC1(C)C2CC3OB(C(CCCSC(=N)N)NC(=O)C(Cc4ccccc4)NC(=O)C(N)Cc4ccccc4)OC3(C)C1C2 (stereo not drawn) [H--(D)Phe--Phe-- boroIrg--C10 H16.2HBr, H-(D)Phe-Phe-boroIrg-C10 H16.2HBr]	49%
Bz-Glu(OBu)-Gly-boroIrg-C10 H16.HBr [Bz--Glu(OBu--Gly--boroIrg--C10 H16.HBr]	59%

Same assay, conditions: inhibitor 100 nM; activity remaining 10 to 20 min after initiation

Compound	Percent Activity
Br.CC1(C)C2CC3OB(C(CCCSC(=N)N)NC(=O)CNC(=O)CNC(=O)C(Cc4ccccc4)NC(=O)OCc4ccccc4)OC3(C)C1C2 (stereo not drawn) [Z--Phe--Gly--Gly--boroIrg--C10 H16.HBr, Z-PheGly-Gly-boroIrg-C10 H16.HBr]	46%

Same assay, conditions: inhibitor 1000 nM; activity remaining 10 to 20 min after initiation

Compound	Percent Activity
Br.CC1(C)C2CC3OB(C(CCCSC(=N)N)NC(=O)CNC(=O)C(CCC(=O)O)NC(=O)c4ccccc4)OC3(C)C1C2 (stereo not drawn) [Bz--Glu--Gly--boroIrg-- C10 H16.HBr, Bz-Glu-Gly-boroIrg-C10 H16.HBr]	39%
CC(C)CC(NC(=O)C(NC(=O)OC(C)(C)C)C(C)C)C(=O)NC(CCCCN)B1OC(C)(C)C(C)(C)O1.Cl (stereo not drawn) [Boc--(D)Val--Leu--boroLys--C6 H12.HCl, Boc-(D)Val-Leu-boroLys-C6 H12.benzene sulfonic acid]	21%
CC(C)CC(NC(=O)CNC(=O)C(CC(C)C)NC(=O)OC(C)(C)C)C(=O)NC(C)C(=O)NC(CCCN)B1OC2CC3CC(C3(C)C)C2(C)O1.O=S(=O)(O)c1ccccc1 (stereo not drawn) [Boc-Leu-Gly-Leu-Ala-boroOrn-C10 H16] (Boc-LGLA-X3; configuration not given here)	24%
Br.Br.CC(=O)NC(C)C(=O)NC(CCCCN)C(=O)NC(CCCSC(=N)N)B1OC2CC3CC(C3(C)C)C2(C)O1 (stereo not drawn) [Ac--Ala--Lys--boroIrg--C10 H16.2HBr, Ac-Ala-Lys-boroIrg-C10 H16.2HBr]	68%

Same assay, conditions: inhibitor 10000 nM; activity remaining 10 to 20 min after initiation

Compound	Percent Activity
Br.Br.CC(N)C(=O)NC(Cc1ccccc1)C(=O)NC(CCCSC(=N)N)B1OC(C)(C)C(C)(C)O1 (stereo not drawn) [H--Ala--Phe--(D,L)boroIrg--C6 H12.2HBr, H-Ala-Phe-(D,L)boroIrg-C6 H12.2HBr]	23%
CC(=O)NC(Cc1ccccc1)C(=O)NC(CCCCN)B1OC(C)(C)C(C)(C)O1.Cl (stereo not drawn) [Ac--Phe--boroLys--C6 H12.HCl, Ac-Phe-boroLys-C6 H12.benzene sulfonic acid]	97%
H-A]a-Phe-(D,L)boroLys-C6 H12.TFA.benzene sulfonic acid [H--Ala--Phe--D,L)boroLys--C6 H12.2HCl]	89%
Br.Br.CC(N)C(=O)NC(Cc1ccccc1)C(=O)NC(CCCCSC(=N)N)B1OC(C)(C)C(C)(C)O1 (stereo not drawn) [H-Ala-Phe-(D,L)boroHomoIrg-C6 H12.2HBr]	47%
